Read-outs that look alike come from different tables or passages of the source.
Tests used:
Format in all cases: cell-based
[1] = tested on: HER2+/2VE Ba/F3 line; experiment: Ba/F3 proliferation assay, HER2+/2VE; conditions: Tables 7 and 8
Protocol: (§1) Proliferation Assays. For adherent cell lines, cells were plated onto opaque white 96 well plates (Greiner cat #655083) and allowed to adhere overnight. The following day media was changed to fresh media that contained either DMSO or the indicated concentration of drug plus NRG (50 ng/mL final concentration) as indicated. Plates were incubated at 37° C. for 72 h and proliferation was read out using Cell Titer Glo (Promega) according to the manufacturer's protocol. For Ba/F3 cell proliferation, cells, drug dilution, and any necessary growth factors (10 ng/mL IL-3 or 6.25 ng/mL NRG) were combined in a well of a 96 well plate. Plates were incubated at 37° C. for 48 h and proliferation was read out using Cell Titer Glo according to the manufacturer's protocol. For all normalized assays, proliferation was normalized to the DMSO control condition. All graphs were plotted in GraphPad Prism 6 and fit with a non-linear regression of the log(inhibitor) vs response with a variable slope where shown. All graphs are averages (+/−standard deviation) of biological triplicates each performed in technical triplicate unless otherwise noted. If only one biological replicate was performed standard deviations were derived from the technical replicates.

[2] = tested on: parental Ba/F3 cells + IL-3; experiment: Ba/F3 proliferation assay, Parental + IL-3; conditions: Tables 7 and 8, read-out: Ba/F3 line IC50, Parental + IL-3
Protocol: (§2) To validate the screen and test the effectiveness of counter-screening with either the same 2YF/3wt Ba/F3 cell line or the parental Ba/F3's in the presence of IL-3 to remove cytotoxic primary hits, we first tested a panel of kinase inhibitors with established mechanisms of action.
as §1

[3] = target: 2YF/3wt + NRG Ba/F3 cells (HER2YF/HER3wt) (Homo sapiens, UniProt P04626, Y1005F/Y1023F/Y1112F/Y1127F/Y1139F/Y1196F/Y1221F/Y1222F/Y1248F, cells depend on it); experiment: Ba/F3 proliferation assay, 2YF/3wt + NRG; conditions: Tables 7 and 8; read-out: Ba/F3 line IC50, HER2YF/HER3 + NRG
Chain of 2YF/3wt + NRG Ba/F3 cells (HER2YF/HER3wt) (P04626 whole entry Y1005F/Y1023F/Y1112F/Y1127F/Y1139F/Y1196F/Y1221F/Y1222F/Y1248F): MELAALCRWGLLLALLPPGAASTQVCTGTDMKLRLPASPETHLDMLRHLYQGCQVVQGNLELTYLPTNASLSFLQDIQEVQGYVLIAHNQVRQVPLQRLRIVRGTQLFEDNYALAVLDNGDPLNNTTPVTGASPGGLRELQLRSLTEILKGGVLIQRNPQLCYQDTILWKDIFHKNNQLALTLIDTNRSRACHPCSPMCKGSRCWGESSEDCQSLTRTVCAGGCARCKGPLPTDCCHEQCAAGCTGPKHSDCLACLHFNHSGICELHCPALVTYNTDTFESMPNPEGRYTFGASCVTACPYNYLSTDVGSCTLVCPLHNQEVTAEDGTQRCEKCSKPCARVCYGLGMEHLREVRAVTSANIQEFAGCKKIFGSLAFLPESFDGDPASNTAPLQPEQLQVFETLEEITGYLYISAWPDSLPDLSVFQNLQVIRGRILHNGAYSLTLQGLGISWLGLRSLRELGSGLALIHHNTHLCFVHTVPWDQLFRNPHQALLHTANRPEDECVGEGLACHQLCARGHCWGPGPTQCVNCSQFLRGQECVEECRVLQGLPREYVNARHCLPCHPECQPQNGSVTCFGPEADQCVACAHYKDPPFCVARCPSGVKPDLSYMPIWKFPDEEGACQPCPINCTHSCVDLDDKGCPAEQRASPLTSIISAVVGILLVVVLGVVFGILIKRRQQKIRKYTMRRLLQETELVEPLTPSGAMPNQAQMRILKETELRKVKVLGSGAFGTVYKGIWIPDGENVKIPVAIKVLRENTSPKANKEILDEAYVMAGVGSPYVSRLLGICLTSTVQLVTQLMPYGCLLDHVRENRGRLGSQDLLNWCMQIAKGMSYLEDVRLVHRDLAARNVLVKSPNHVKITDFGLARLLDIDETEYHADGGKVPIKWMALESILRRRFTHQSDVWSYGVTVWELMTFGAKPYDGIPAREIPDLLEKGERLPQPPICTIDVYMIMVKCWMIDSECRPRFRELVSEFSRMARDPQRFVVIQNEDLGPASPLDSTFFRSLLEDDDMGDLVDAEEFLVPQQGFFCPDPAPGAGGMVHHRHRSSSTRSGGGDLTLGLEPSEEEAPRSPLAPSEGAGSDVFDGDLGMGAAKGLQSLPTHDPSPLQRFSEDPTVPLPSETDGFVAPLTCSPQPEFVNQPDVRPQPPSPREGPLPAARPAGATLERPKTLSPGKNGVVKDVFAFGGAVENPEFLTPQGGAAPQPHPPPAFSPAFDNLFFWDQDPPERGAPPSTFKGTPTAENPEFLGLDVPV
Source text: Ba/F3 cells are normally dependent on IL-3 signaling for their proliferation and survival, but can be made dependent on introduced oncogenic signals. We sequentially selected transduced Ba/F3 cells for populations stably expressing HER3 and then HER2. To ensure that all of the proliferative signal could be attributed to HER2/HER3 heterodimers, rather than HER2 homodimers, the 9 C-terminal tyrosines in HER2 were mutated to phenylalanine (HER2YF). We then withdrew IL-3 and supplemented the media with NRG to select for NRG dependent HER2YF/HER3wt cells (2YF/3wt).
For the 2YF/3wt cells, the parental cells were first transduced with HER3 according to the protocol above and were then spun down at 500×g for 5 min and re-suspended in media supplemented with 10 ng/mL IL-3 and 3 μg/mL puromycin (Invitrogen). Cells were maintained in these conditions for seven days, passaging as required. After seven days the cells were spun down, washed with fresh media, and then used for a subsequent round of transduction according to the protocol above with HER2YF virus. […] The cells were maintained in these conditions for seven days, passaging as required. After seven days the cells were spun down, washed with fresh media, and then suspended in media supplemented with 10 ng/mL of NRG. Cells were maintained in these conditions for seven days to select for a NRG dependent population of 2YF/3wt Ba/F3 cells that were then maintained as described above. The same protocol was used for the 2YF-L755S/3wt, 2YF-YVMA/3wt, and 2YF-VC/3wt cell lines using the indicated constructs.
Proliferation Assays. […] The following day media was changed to fresh media that contained either DMSO or the indicated concentration of drug plus NRG (50 ng/mL final concentration) as indicated. […] For all normalized assays, proliferation was normalized to the DMSO control condition. All graphs were plotted in GraphPad Prism 6 and fit with a non-linear regression of the log(inhibitor) vs response with a variable slope where shown. All graphs are averages (+/−standard deviation) of biological triplicates each performed in technical triplicate unless otherwise noted. If only one biological replicate was performed standard deviations were derived from the technical replicates.

[4] = target: T1, Axl+ Ba/F3 cells (Homo sapiens, UniProt P30530); experiment: Ba/F3 proliferation assay, Axl+; conditions: Tables 7 and 8; read-out: Ba/F3 line IC50, Axl+
T1 sequence (P30530 1-894): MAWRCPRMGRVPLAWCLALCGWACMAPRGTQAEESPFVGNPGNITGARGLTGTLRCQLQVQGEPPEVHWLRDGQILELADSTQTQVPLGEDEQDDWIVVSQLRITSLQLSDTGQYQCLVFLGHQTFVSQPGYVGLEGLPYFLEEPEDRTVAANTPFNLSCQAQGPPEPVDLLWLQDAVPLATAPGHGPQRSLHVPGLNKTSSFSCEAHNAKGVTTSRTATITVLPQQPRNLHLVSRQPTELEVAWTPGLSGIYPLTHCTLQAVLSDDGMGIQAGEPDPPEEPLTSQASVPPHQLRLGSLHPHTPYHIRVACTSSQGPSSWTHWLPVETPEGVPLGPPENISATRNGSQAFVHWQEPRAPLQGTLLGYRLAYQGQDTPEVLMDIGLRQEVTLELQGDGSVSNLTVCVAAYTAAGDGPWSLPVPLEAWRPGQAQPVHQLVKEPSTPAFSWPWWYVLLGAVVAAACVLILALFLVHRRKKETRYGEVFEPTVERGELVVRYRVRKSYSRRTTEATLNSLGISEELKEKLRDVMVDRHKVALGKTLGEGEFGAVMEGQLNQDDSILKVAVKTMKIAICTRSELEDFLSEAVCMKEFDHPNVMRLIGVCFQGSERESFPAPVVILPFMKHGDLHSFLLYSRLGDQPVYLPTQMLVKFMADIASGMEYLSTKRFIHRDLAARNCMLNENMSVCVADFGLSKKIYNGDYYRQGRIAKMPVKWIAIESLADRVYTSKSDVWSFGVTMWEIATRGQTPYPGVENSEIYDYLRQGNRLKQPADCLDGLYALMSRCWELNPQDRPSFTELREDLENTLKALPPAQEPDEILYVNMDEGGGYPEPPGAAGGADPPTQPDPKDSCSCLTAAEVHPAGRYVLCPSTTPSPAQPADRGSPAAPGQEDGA
Protocol: as §2
For Axl+ cells, the transduced cells were spun down at 500×g for 5 min and resuspended in media supplemented with 10 ng/mL IL-3 and 3 μg/mL puromycin (Invitrogen). Cells were maintained in these conditions for 7 days, passaging as required. After 7 days the cells were spun down, washed with fresh media, and then suspended in IL-3 free media. The cells were maintained in these conditions for 2 weeks to select for an IL-3 independent population of Axl+ driven cells.
as §1

| IC50 ([1]; Mus musculus, BaF3) [µM] | GI50 [3] [µM] | IC50 [1] [µM] | GI50 [4] [µM] | Structure (SMILES) | IC50 ([2]; Mus musculus, BaF3) [µM] | IC50 [2] [µM] |
| --- | --- | --- | --- | --- | --- | --- |
| 0.295 | 0.0393 |  |  | COc1ccc(-c2sccc2C)cc1Nc1ncnc2[nH]nc(-c3cn[nH]c3)c12 [Cmpd 154B] | > 10 |  |
| > 10 | > 10 |  | > 10 | COc1ccc(-c2ccccc2)cc1Nc1ncnc2[nH]nc(-c3ccc(C(F)(F)F)cc3)c12 [Cmpd 191E] | > 10 |  |
| > 10 | > 10 |  |  | COc1ccc(-c2ccnn2C)cc1Nc1ncnc2[nH]nc(-c3cn[nH]c3)c12 [Cmpd 154A] | > 10 |  |
| 1.11 | 0.884 |  | 1.01 | COc1ccc(-c2ccccc2)cc1Nc1ncnc2[nH]nc(-c3ccc(C#N)cc3)c12 [Cmpd 191D] | 1.74 |  |
| > 10 | > 10 |  | > 10 | c1ccc(-c2ccc(Nc3ncnc4[nH]nc(-c5ccccc5)c34)cc2)cc1 [Cmpd 188A] | > 10 |  |
| > 1 | > 1 |  | > 1 | COc1ccc(-c2ccccc2)cc1Nc1ncnc2[nH]nc(-c3cccc4ccccc34)c12 [Cmpd 191B] | > 1 |  |
| 0.229 | 0.0868 |  | 0.171 | COc1cccc(-c2n[nH]c3ncnc(Nc4cc(-c5ccccc5)ccc4OC)c23)c1 [Cmpd 190A] | 0.45 |  |
| > 10 | > 10 |  |  | COc1ccc(-c2cnn(C)c2)cc1Nc1ncnc2[nH]nc(-c3cn[nH]c3)c12 [Cmpd 154C] | > 10 |  |
| 0.228 | 0.032 |  |  | COc1ccc(-c2ccoc2)cc1Nc1ncnc2[nH]cc(-c3ccc4nc[nH]c4c3)c12 [Cmpd 173B] |  |  |

The remaining lines, values behind:

| Structure (SMILES) | IC50 ([1]; Mus musculus, BaF3) [µM] | GI50 [3] [µM] | IC50 [1] [µM] | GI50 [4] [µM] | IC50 ([2]; Mus musculus, BaF3) [µM] | IC50 [2] [µM] |
| --- | --- | --- | --- | --- | --- | --- |
| COc1ccc(-c2ccoc2)cc1Nc1ncnc2[nH]nc(-c3ccnn3C)c12 [Cmpd 152] | 2.57 | 0.822 |  |  | > 10 |  |
| CCOc1ccc(-c2ccoc2)cc1Nc1ncnc2[nH]nc(-c3cn[nH]c3)c12 [Cmpd 153] | 0.285 | 0.0175 |  |  | > 3.33 |  |
| COc1ccc(-c2ccccc2)cc1Nc1nc(N)nc2[nH]nc(-c3ccco3)c12 [Cmpd 65] | 0.011 | 0.004 |  |  | 0.0084 |  |
| CCOc1ccc(-c2ccccc2)cc1Nc1ncnc2[nH]cc(-c3cc[nH]n3)c12 [Cmpd 176] |  | 0.029 | 0.217 |  |  | 2.29 |
| COc1ccc(-c2ccccc2)cc1Nc1ncnc2[nH]nc(-c3cccc(C(N)=O)c3)c12 [Cmpd 45D] | 0.869 | 0.27 |  | 0.88 | 3.01 |  |
| COc1ccc(-c2ccccc2)cc1Nc1ncnc2[nH]nc(-c3ccccc3)c12 [Cmpd 184] | 1.29 | 0.386 |  | 0.527 | 9.95 |  |
| COc1ccc(C(=O)N(C)C)cc1Nc1ncnc2[nH]nc(-c3ccsc3)c12 [Cmpd 42] | > 10 | > 10 |  | > 10 | > 10 |  |
| COc1ccc(-c2csc(C)n2)cc1Nc1ncnc2[nH]nc(-c3ccco3)c12 [Cmpd 66A] | 2.34 | 1.56 |  |  |  |  |
| COc1ccc(-c2ccccc2)cc1N(C)c1ncnc2[nH]nc(-c3ccsc3)c12 [Cmpd 43] | > 3.33 | > 3.33 |  | > 3.33 | > 3.33 |  |
| COc1ccc(-c2ccoc2)cc1Nc1ncnc2[nH]nc(-c3cnn(C)c3)c12 [Cmpd 144B] | 0.307 | 0.0214 |  |  | > 3.33 |  |
| COc1ccc(-c2sccc2C)cc1Nc1ncnc2[nH]nc(-c3ccco3)c12 [Cmpd 66B] | 0.21 | 0.031 |  |  |  |  |
| COc1ccc(-c2csc(C)c2)cc1Nc1ncnc2[nH]cc(-c3cn[nH]c3)c12 [Cmpd 172] | 0.422 | 0.91 |  |  |  |  |
| COc1ccc(-c2ccc(C#N)s2)cc1Nc1ncnc2[nH]cc(-c3cn[nH]c3)c12 [Cmpd 170] | 0.673 | 0.687 |  |  |  |  |
| COc1ccc(-c2ccoc2)cc1Nc1ncnc2[nH]nc(-c3ccccc3)c12 [Cmpd 144A] | 1.08 | 0.171 |  |  | > 3.33 |  |
| COc1ccc(-c2ccnn2C)cc1Nc1ncnc2[nH]nc(-c3ccco3)c12 [Cmpd 66C] | 0.642 | 0.362 |  |  |  |  |
| CCOc1ccc(-c2ccccc2)cc1Nc1ncnc2[nH]cc(-c3cn[nH]c3)c12 [Cmpd 171] | 0.183 | 0.045 |  |  |  |  |
| CCOc1ccc(-c2ccccc2)cc1Nc1ncnc2[nH]nc(-c3cn[nH]c3)c12 [Cmpd 147] | 0.359 | 0.0587 |  |  | 1.36 |  |

— patent publication US20190119284A1, “ErbB Inhibitors and Uses Thereof” (The Regents of the University of California, priority 2016, published 2019)
